According to patent publication US9365522B2, “Pyrazole amide derivative” (AMGEN INC., priority 2015, dated 2016):

Biological target: T1, human RORγ-LBD (Homo sapiens, UniProt P51449)
T1 construct: made in house; host or cells: E. coli (BL-21)
T1 sequence (P51449 262-518): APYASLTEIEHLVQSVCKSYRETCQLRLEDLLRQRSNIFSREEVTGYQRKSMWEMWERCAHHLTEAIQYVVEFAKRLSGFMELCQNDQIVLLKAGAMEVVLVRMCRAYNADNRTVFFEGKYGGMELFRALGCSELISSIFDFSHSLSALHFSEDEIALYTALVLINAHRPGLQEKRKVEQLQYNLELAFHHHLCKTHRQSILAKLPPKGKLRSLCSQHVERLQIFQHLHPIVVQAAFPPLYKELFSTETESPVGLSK
Experiment: ROR gamma coactivator peptide recruitment Alphascreen assay (RORγ-LBD binding to GRIP1 coactivator peptide)
Format: biochemical
Details: 5 nM human RORγ-LBD, 30 nM 7-β-hydroxycholesterol, 50 nM biotinylated GRIP1 coactivator peptide, overnight incubation at room temperature; read-out: result (pIC50, RORγ coactivator peptide recruitment Alphascreen assay) (converted)
In short: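 Alphascreen proximity read-out after overnight room-temperature incubation, yielding pIC50 from 1-in-2 compound series (2.5% DMSO final). Mixture: 50 nM biotin-GRIP1 peptide, 30 nM 7-β-hydroxycholesterol agonist, 5 nM recombinant 6×His:Flag human RORγ-LBD (aa 262-518), 50 mM HEPES pH 7.4.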

Row | IC50 [nM] | Structure (SMILES)
1 | 4.37 | C[C@]1(C(=O)O)CC[C@H](n2ncc(C(=O)N(CC(=O)c3c(Cl)cccc3Cl)[C@@H]3CC34CCCC4)c2C(F)(F)F)CC1 [Example 652, trans-4-(4-((2-(2,6-dichlorophenyl)-2-oxoethyl)((1R)-spiro[2.4]hept-1-yl)carbamoyl)-5-(trifluoromethyl)-1H-pyrazol-1-yl)-1-methylcyclohexanecarboxylic acid]
2 | 5.89 | O=C(c1cnn([C@H]2CC[C@H](C(=O)O)CC2)c1C(F)(F)F)N(CCc1c(Cl)cccc1Cl)Cc1ccc(C(F)(F)F)cc1 [Example 526, trans-4-(4-((2-(2,6-dichlorophenyl)ethyl)(4-(trifluoromethyl)benzyl)carbamoyl)-5-(trifluoromethyl)-1H-pyrazol-1-yl)cyclohexanecarboxylic acid]
3 | 33.1 | C[C@]1(C(=O)O)CC[C@H](n2ncc(C(=O)N(CC(=O)c3c(Cl)cncc3Cl)CC3(F)CC3)c2C(F)(F)F)CC1 [Example 593, trans-4-(4-((2-(3,5-dichloro-4-pyridinyl)-2-oxoethyl)((1-fluorocyclopropyl)methyl)carbamoyl)-5-(trifluoromethyl)-1H-pyrazol-1-yl)-1-methylcyclohexanecarboxylic acid]
4 | 34.7 | C[C@]1(CC(=O)O)CC[C@@H](n2ncc(C(=O)N(CC(=O)c3c(Cl)cncc3Cl)Cc3cc(F)cc(F)c3)c2C(F)(F)F)CC1 [Example 790, (cis-4-(4-((2-(3,5-dichloro-4-pyridinyl)-2-oxoethyl)(3,5-difluorobenzyl)carbamoyl)-5-(trifluoromethyl)-1H-pyrazol-1-yl)-1-methylcyclohexyl)acetic acid]
5 | 64.6 | O=C(CN(C(=O)c1cnn([C@H]2CC[C@@H](C(=O)O)CC2)c1C(F)(F)F)C1CCC12CCCC2)c1c(Cl)cccc1Cl (stereo in doubt) [Example 627, cis-4-(4-((2-(2,6-dichlorophenyl)-2-oxoethyl)((1R)-spiro[3.4]oct-1-yl)carbamoyl)-5-(trifluoromethyl)-1H-pyrazol-1-yl)cyclohexanecarboxylic acid]
6 | 3.72 | CC(C)(C)CN(CC(=O)c1c(Cl)cncc1Cl)C(=O)c1cnn([C@H]2C[C@]3(C[C@H](C(=O)O)C3)C2)c1C(F)(F)F (single isomer, unassigned) [Example 837]
7 | 3.02 | C[C@]1(C(=O)O)CC[C@H](n2ncc(C(=O)N(CC(=O)c3c(Cl)cncc3Cl)CC3(CF)CCC3)c2C(F)(F)F)CC1 [Example 800, trans-4-(4-((2-(3,5-dichloro-4-pyridinyl)-2-oxoethyl)((1-(fluoromethyl)cyclobutyl)methyl)carbamoyl)-5-(trifluoromethyl)-1H-pyrazol-1-yl)-1-methylcyclohexanecarboxylic acid]
8 | 74.1 | C[C@]1(C(=O)O)CC[C@H](n2ncc(C(=O)N(CC(=O)c3c(Cl)cncc3Cl)CC3CC(F)(F)C3)c2C(F)(F)F)CC1 [Example 594, trans-4-(4-((2-(3,5-dichloro-4-pyridinyl)-2-oxoethyl)((3,3-difluorocyclobutyl)methyl)carbamoyl)-5-(trifluoromethyl)-1H-pyrazol-1-yl)-1-methylcyclohexanecarboxylic acid]
9 | 11.7 | CC1(CN(CC(=O)c2c(Cl)cncc2Cl)C(=O)c2cnn([C@H]3CC[C@](C)(C(=O)O)CC3)c2C(F)(F)F)CC1 [Example 577, trans-4-(4-((2-(3,5-dichloro-4-pyridinyl)-2-oxoethyl)((1-methylcyclopropyl)methyl)carbamoyl)-5-(trifluoromethyl)-1H-pyrazol-1-yl)-1-methylcyclohexanecarboxylic acid]
10 | 15.1 | O=C(c1cnn([C@H]2CC[C@H](C(=O)O)CC2)c1C(F)(F)F)N(CCc1ccccc1Cl)Cc1ccc(Cl)cc1 [Example 500, trans-4-(4-((4-chlorobenzyl)(2-(2-chlorophenyl)ethyl)carbamoyl)-5-(trifluoromethyl)-1H-pyrazol-1-yl)cyclohexanecarboxylic acid]
11 | 3.89 | CC(C)(F)CN(CC(=O)c1c(Cl)cccc1Cl)C(=O)c1cnn([C@H]2CC[C@](C)(C(=O)O)CC2)c1C(F)(F)F [Example 832, trans-4-(4-((2-(2,6-dichlorophenyl)-2-oxoethyl)(2-fluoro-2-methylpropyl)carbamoyl)-5-(trifluoromethyl)-1H-pyrazol-1-yl)-1-methylcyclohexanecarboxylic acid]
12 | 24 | O=C(CN(C(=O)c1cnn([C@H]2CC[C@@H](C(=O)O)CC2)c1C(F)(F)F)[C@H]1CCC12CCC2)c1c(Cl)cccc1Cl [Example 642, cis-4-(4-((2-(2,6-dichlorophenyl)-2-oxoethyl)((1S)-spiro[3.3]hept-1-yl)carbamoyl)-5-(trifluoromethyl)-1H-pyrazol-1-yl)cyclohexanecarboxylic acid]
13 | 2.34 | O=C(O)C[C@H]1CC[C@H](n2ncc(C(=O)N(CC(=O)c3c(Cl)cncc3Cl)Cc3cc(F)cc(F)c3)c2C(F)(F)F)CC1 [Example 755, (trans-4-(4-((2-(3,5-dichloro-4-pyridinyl)-2-oxoethyl)(3,5-difluorobenzyl)carbamoyl)-5-(trifluoromethyl)-1H-pyrazol-1-yl)cyclohexyl)acetic acid]
14 | 7.41 | Cc1cc(Cl)c(C(=O)CN(CC2CCC(C)(C)CC2)C(=O)c2cnn([C@H]3CC[C@](C)(C(=O)O)CC3)c2C(F)(F)F)c(Cl)c1 [Example 532, trans-4-(4-((2-(2,6-dichloro-4-methylphenyl)-2-oxoethyl)((4,4-dimethylcyclohexyl)methyl)carbamoyl)-5-(trifluoromethyl)-1H-pyrazol-1-yl)-1-methylcyclohexanecarboxylic acid]
15 | 79.4 | Cc1cc(Cl)c(C(=O)CN(CC(C)(C)C)C(=O)c2cnn([C@H]3CC[C@H](C(=O)O)CC3)c2C(F)(F)F)c(Cl)n1 [Example 542, trans-4-(4-((2-(2,4-dichloro-6-methyl-3-pyridinyl)-2-oxoethyl)(2,2-dimethylpropyl)carbamoyl)-5-(trifluoromethyl)-1H-pyrazol-1-yl)cyclohexanecarboxylic acid]
16 | 372 | C[C@H]1C[C@H](n2ncc(C(=O)N(CCC(F)(F)F)CC(=O)c3c(Cl)cncc3Cl)c2C(F)(F)F)CC[C@H]1C(=O)O [Example 767, (1R,2S,4R)-4-(4-((2-(3,5-dichloro-4-pyridinyl)-2-oxoethyl)(3,3,3-trifluoropropyl)carbamoyl)-5-(trifluoromethyl)-1H-pyrazol-1-yl)-2-methylcyclohexanecarboxylic acid]
17 | 2.82 | CC1(CN(CCc2c(Cl)cncc2Cl)C(=O)c2cnn([C@H]3CC[C@H](C(=O)O)CC3)c2C(F)(F)F)CCCC1 [Example 557, trans-4-(4-((2-(3,5-dichloro-4-pyridinyl)ethyl)((1-methylcyclopentyl)methyl)carbamoyl)-5-(trifluoromethyl)-1H-pyrazol-1-yl)cyclohexanecarboxylic acid]
18 | 3.39 | C[C@]1(C(=O)O)CC[C@H](n2ncc(C(=O)N(CC(=O)c3c(Cl)cncc3Cl)[C@H]3CCC34CCC4)c2C(F)(F)F)CC1 [Example 748, trans-4-(4-((2-(3,5-dichloro-4-pyridinyl)-2-oxoethyl)((1S)-spiro[3.3]hept-1-yl)carbamoyl)-5-(trifluoromethyl)-1H-pyrazol-1-yl)-1-methylcyclohexanecarboxylic acid]
19 | 2.04 | COc1cc(Cl)c(C(=O)CN(Cc2ccc(F)cc2)C(=O)c2cnn([C@H]3CC[C@H](CC(=O)O)CC3)c2C(F)(F)F)c(Cl)c1 [Example 889, (trans-4-(4-((2-(2,6-dichloro-4-methoxyphenyl)-2-oxoethyl)(4-fluorobenzyl)carbamoyl)-5-(trifluoromethyl)-1H-pyrazol-1-yl)cyclohexyl)acetic acid]
20 | 20.4 | C[C@]1(CN(CC(=O)c2c(Cl)cncc2Cl)C(=O)c2cnn([C@H]3CC[C@](C)(C(=O)O)CC3)c2C(F)(F)F)CCCO1 [Example 661, trans-4-(4-((2-(3,5-dichloro-4-pyridinyl)-2-oxoethyl)(((2R)-2-methyltetrahydro-2-furanyl)methyl)carbamoyl)-5-(trifluoromethyl)-1H-pyrazol-1-yl)-1-methylcyclohexanecarboxylic acid]
21 | 64.6 | C[C@@H]1C[C@@H](n2ncc(C(=O)N(CC(=O)c3c(Cl)cncc3Cl)[C@@H]3CCC34CCC4)c2C(F)(F)F)CC[C@@H]1C(=O)O [Example 817, (1S,2R,4S)-4-(4-((2-(3,5-dichloro-4-pyridinyl)-2-oxoethyl)((1R)-spiro[3.3]hept-1-yl)carbamoyl)-5-(trifluoromethyl)-1H-pyrazol-1-yl)-2-methylcyclohexanecarboxylic acid]
22 | 11.2 | CC1(C)CCC(CN(CCc2c(Cl)cncc2Cl)C(=O)c2cnn([C@H]3CC[C@H](C(=O)O)CC3)c2C(F)(F)F)CC1 [Example 546, trans-4-(4-((2-(3,5-dichloro-4-pyridinyl)ethyl)((4,4-dimethylcyclohexyl)methyl)carbamoyl)-5-(trifluoromethyl)-1H-pyrazol-1-yl)cyclohexanecarboxylic acid]
23 | 34.7 | C[C@H](C(=O)O)[C@H]1CC[C@@H](n2ncc(C(=O)N(CC(=O)c3c(Cl)cncc3Cl)Cc3cc(F)cc(F)c3)c2C(F)(F)F)CC1 [Example 786, 2-(cis-4-(4-((2-(3,5-dichloro-4-pyridinyl)-2-oxoethyl)(3,5-difluorobenzyl)carbamoyl)-5-(trifluoromethyl)-1H-pyrazol-1-yl)cyclohexyl)propanoic acid]
